In paper PMC11554538, “Region-independent active CNS net uptake of marketed H^+/OC antiporter system substrates” (Frontiers in Cellular Neuroscience, 2024):
Counter-ions that a name gives are not always drawn. Like-named read-outs stand apart in the source and are kept apart here.

Experiments:
[1] = rat, 5 h
[2] = male, Sprague-Dawley, rat, in vivo
in vitro [3] = details: rat
in vitro [4] = details: rat; for fraction unbound at 6 h: pH 7.4, Unbound fraction in plasma, fu,plasma
Procedure: Equilibrium dialysis was employed to determine the fraction of unbound drug in plasma (fu,plasma), homogenates of whole-brain (fu,brain) and the CNS regions of interest (fu,ROI) including the frontal cortex, parietal cortex, cerebellum, striatum, hippocampus, and spinal cord. […] Briefly, a Teflon 96-well plate (model HTD96b, HTDialysis LLC, Gales Ferry, CT, USA) with a cellulose membrane with a 12–14 kDa molecular weight cutoff was used. The cellulose membrane was treated according to the recommendations from the manufacturer before starting the experiment (HTDialysis LLC, Gales Ferry, CT, USA). Fresh plasma (n=3 rats per drug) was obtained on the day of the experiment and the pH of the plasma was adjusted to 7.40 using H3PO4. […] Whole brain and CNS regions of interest (n = 3–4 rats per drug) were homogenized in 1:9 (w:v) PBS pH 7.40. Diluted brain samples were individually spiked to a final concentration of 1,000 nM. Hundred μL of undiluted spiked plasma samples or homogenates were dialyzed against equal volumes of PBS, pH 7.40, for 6 h at 37°C at 200 rpm in an incubator with orbital shaking (MaxQ4450 Thermo Fisher Scientific, NinoLab, Sweden). One to three technical replicates were tested per biological replicate. Drug recovery and thermostability in plasma and brain were analyzed in each experiment by sampling spiked samples before and after the 6-h incubation. […] At the end of the 6-h incubation, 50 μL PBS sample from the receiver chambers was transferred into a Corning® 0.33 mL round-bottom polypropylene 96-well plate (VWR, Stockholm, Sweden) containing 50 μL blank plasma or 1:9 (w:v) brain homogenate using a multichannel pipette. Immediately after this step, 50 μL spiked plasma or brain homogenate was taken from the donor chambers and added to the same 96-well plate containing 50 μL of blank PBS. The 96-well plate was sealed with aluminum film, vortexed and stored at −20°C pending bioanalysis. The fraction of unbound drug in plasma was assessed as a ratio between buffer and plasma concentrations. The unbound fraction of drug in the diluted (D) CNS tissue homogenate (fu,hD) was calculated as: […]

[5] = rat, in vivo; for Cu,brainISF,ss (unbound steady-state concentration in brain interstitial fluid): male, Sprague-Dawley
[6] = cited from earlier work
in vitro [7] = details: rat; remark: listed apart in the source
in vivo [8] = details: male, Sprague-Dawley, rat, iv
in vivo [9] = details: male, Sprague-Dawley, rat
[10] = brain homogenate, pH 7.4, Unbound fraction fu,ROI (fu,brain)
[11] = tissue homogenate, pH 7.4, Unbound fraction fu,ROI
[12] = cerebral microdialysis, ref Kitamura et al., 2016

SMILES | Ctot,CSF,ss (total CSF concentration at steady state, assumed equal to unbound) ([2]; 4 h) | fraction unbound at 6 h, 1000 nM (in vitro [3]; [10]) | fraction unbound at 6 h, 1000 nM (in vitro [3]; [11]) | fraction unbound at 6 h (in vitro [4]; plasma) | Cu,brainISF,ss (unbound steady-state concentration in brain interstitial fluid) ([5]; 4 h) [ng/g brain] | Kp,uu,ROI (unbound ROI-to-plasma concentration ratio) [5] | Reported Kp,uu [6, 12] | Kp uu at 5 h (in vitro [7]) | further results
CC(NC(C)(C)C)C(=O)c1cccc(Cl)c1 (centres unmarked) [Bupropion, bupropion hydrochloride] | 21.9±5.6 | 0.209 ± 0.031 | 0.142 ± 0.004 | 0.33 | 9.3±4.6 | exceeding unity | – | – | Kp,uu,cell,obs (observed unbound brain intracellular-to-extracellular concentration ratio) [1]: 3.1; Unbound fraction in plasma, fu,plasma (in vitro [4]; 6 h, pH 7.4): 0.327 ± 0.068; Reported Kp,uu ([6]; cerebral microdialysis, ref Cremers et al., 2016): 1.9 (Cremers et al., [2016]); Kp uu at 5 h (in vitro [7]; Kp,uu,cell,obs (observed unbound brain intracellular-to-extracellular concentration ratio)): 3.12
COc1ccc(CN(CCN(C)C)c2ccccn2)cc1 [Pyrilamine, Pyrilamine maleate] | 7.7±1.9 | 0.093 ± 0.012 | 0.103 ± 0.013 | 0.386 ± 0.093 | 21.6±2.0 | exceeding unity | 2.50 (Kitamura et al., [2016]) | 1.88 | Difference between mean Kp,uu,ROI in the whole brain and Kp,uu,CSF ([2]; 4 h): 2.8 fold
CC12CC3CC(C)(C1)CC(N)(C3)C2 [Memantine, memantine hydrochloride] | – | – | – | 0.543 ± 0.037 | 194.3±38.5 | exceeding unity | 1.80 | 2.11 | Reported Kp,uu ([6]; cerebral microdialysis, ref Kawase et al., 2021a): 2.03; Kp at 4 h (in vivo [8]): 41.7
COc1cccc(C2(O)CCCCC2CN(C)C)c1 (centres unmarked) [Tramadol, tramadol hydrochloride] | – | – | – | – | – | exceeding unity | – | – | Kp uu at 4 h (in vivo [9]): 1.49 ± 0.49; Ctot,CSF,ss (total CSF concentration at steady state, assumed equal to unbound) [2]: 47.7±8.2; fraction unbound (in vitro [3]; [10]): 0.496 ± 0.128; fraction unbound (in vitro [3]; [11]): 0.462 ± 0.064; fraction unbound at 6 h (in vitro [4]; undiluted rat plasma pH 7.40, 500 nM (memantine 500 ng/mL), 6 h, 37°C, mean ± SD): 0.827 ± 0.027; Cu,brainISF,ss (unbound steady-state concentration in brain interstitial fluid) [5]: 95.0±9.4; Reported Kp,uu ([6]; in vivo): 2.90 (Kitamura et al., [2016]) 2.30 (Kitamura et al., [2014]); Kp uu (in vitro [7]): 2.01
